Legend:
[1] = system: purified X. dendrorhous enzyme (F-3); assay: Fructosyltransferase activity: sucrose 600 g/l incubated with purified enzyme at 45° C., HPLC; assay type: biochemical, Xanthophyllomyces dendrorhous; conditions: for Composition of the reaction mixture: 45° C., 600 g sucrose/l, 5 U/ml; for composition of the system at the end time: Example 8: 160 hours, 40° C. as printed (heading 45° C.), 200 rpm, FOS = tri- and tetrasaccharides
Description: (§1) A study was carried out using a high concentration of sucrose (600 g/l), conditions which can favor the formation of glycosidic bonds in detriment of hydrolysis. […] On one hand, fructose (peak 1) and glucose (peak 2) are formed as hydrolytic products. On the other hand, two trisaccharides are formed: a majority product (peak 4), which is most likely neokestose [β-D-Fru-(2→6)-α-D-Glu-(1→2)-D-Fru] (since it is the majority transfructosylation product described in X. dendrorhous cultures) and another minor product (peak 5), identified as 1-kestose [α-D-Glu-(1→2)-β-D-Fru(1→2)-β-D-Fru]. Small amounts of different compounds (peaks 6-8) which, taking into account the retention time in the column, are probably tetrasaccharides not yet identified, are furthermore observed. The sucrose which has not yet reacted corresponds to peak 3.
A solution with a high concentration of sucrose (600 g/l) in 0.2 M sodium acetate buffer pH 5.6 was prepared. 5 U/ml of fructofuranosidase (a unit U is the enzymatic activity corresponding to the release of a micromole of reducer sugars per minute using sucrose 100 g/l as a substrate in 0.2 M buffer sodium acetate pH 5.6 at 60° C.) were added. […] Aliquots were extracted at different times, incubated for 5 minutes at 80° C. to inactivate the enzyme, diluted 1:4 (v/v) with water, centrifuged for 5 min at 6000 rpm in an Eppendorf tube with a 0.45 μm filter and analyzed by HPLC liquid chromatography. The profile of the products formed can be seen in FIG. 5. […] Two trisaccharides are obtained: a majority product which is most likely neokestose [β-D-Fru-(2→6)-α-D-Glu-(1→2)-D-Fru] and another minor product identified as 1-kestose [α-D-Glu-(1→2)-β-D-Fru(1→2)-β-D-Fru]. At the end time (160 hours), the composition of the system was: 10.5% fructose, 17.6% glucose, 54.6% sucrose, 17.3% fructooligosaccharides (tri- and tetrasaccharides).

[2] = system: extracellular fraction of X. dendrorhous (fructofuranosidase activity); assay: Fructofuranosidase activity of the cell-free extracellular fraction on different carbohydrates (glucose release, glucose oxidase-peroxidase); assay type: biochemical, Xanthophyllomyces dendrorhous; conditions: for Specific activity: cell-free fraction of culture in maltose minimal medium, 2.37 ODU660 nm; for Fructofuranosidase activity detected: cell-free fraction, compound used as substrate
Description: (§2) The cell-free fraction was obtained by centrifugation (F-0) of an X. dendrorhous culture grown at 23° C. and 160 rpm. Fructofuranosidase activity was assayed in this fraction by assessing the release of glucose on different substrates. A colorimetric assay and standard methodology were used. The released glucose was quantified using the glucose oxidase-peroxidase coupled reaction: 0.4 ml of the solution to be assayed was mixed with 0.1 ml of A:B solution (20:1) (A: 0.85 U/ml glucose oxidase, 0.40 U/ml peroxidase in sodium phosphate buffer pH 5; B: 0.6% o-dianisidine). It was incubated for 30 minutes at 37° C. and spectrophotometrically quantified at 450 nm. A standard glucose curve (1 to 100 μg/ml) was used. The fructofuranosidase activity unit is defined in μg/ml min of glucose assessed in the described conditions.
The cell-free fraction, obtained by centrifuging an X. dendrorhous culture in maltose minimal medium, grown to an optical density of 2.37 ODU660 nm, was assayed on different substrates.

[3] = target: X. dendrorhous fructofuranosidase (Phaffia rhodozyma, UniProt B8YJM2); assay: Kinetic characterization of the purified enzyme on sucrose; assay type: biochemical, Xanthophyllomyces dendrorhous; conditions: 20 minutes, 20 μl purified enzyme; standard error of the mean ±10
X. dendrorhous fructofuranosidase, sequence (B8YJM2 entry or part of it): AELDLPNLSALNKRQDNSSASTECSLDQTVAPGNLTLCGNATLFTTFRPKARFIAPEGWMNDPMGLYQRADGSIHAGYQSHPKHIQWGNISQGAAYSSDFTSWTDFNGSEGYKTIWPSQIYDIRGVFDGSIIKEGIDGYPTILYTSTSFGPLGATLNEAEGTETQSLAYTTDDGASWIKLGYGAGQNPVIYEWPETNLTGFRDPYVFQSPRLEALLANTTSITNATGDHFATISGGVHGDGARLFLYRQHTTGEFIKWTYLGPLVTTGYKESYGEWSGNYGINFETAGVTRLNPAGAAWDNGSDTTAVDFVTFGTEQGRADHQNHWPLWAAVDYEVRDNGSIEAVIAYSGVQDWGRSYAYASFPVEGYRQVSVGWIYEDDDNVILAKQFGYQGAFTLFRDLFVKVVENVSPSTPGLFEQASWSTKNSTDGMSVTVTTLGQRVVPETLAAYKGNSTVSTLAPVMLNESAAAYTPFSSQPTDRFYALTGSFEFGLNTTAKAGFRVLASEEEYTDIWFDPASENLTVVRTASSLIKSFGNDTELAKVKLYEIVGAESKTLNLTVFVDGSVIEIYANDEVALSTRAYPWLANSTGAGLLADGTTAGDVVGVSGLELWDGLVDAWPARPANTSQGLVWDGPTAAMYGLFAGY
Description: The kinetic characterization of the enzyme purified according to the described process was performed on sucrose. […] The assays were performed in 20 minutes and 20 μl of purified enzyme for each reaction according to the described process.

[4] = system: purified X. dendrorhous enzyme (F-3); assay: Fructosyltransferase activity: sucrose 600 g/l incubated with purified enzyme at 60° C., HPLC; assay type: biochemical, Xanthophyllomyces dendrorhous
Description: as §1
The total percentage (w/w) of fructooligosaccharides after 160 hours of reaction was the 9.7%, value relating to the total carbohydrates in the medium.

[5] = system: X. dendrorhous F-3 fraction (purified fructofuranosidase); assay: Hydrolytic (fructofuranosidase) activity of the purified enzyme F-3 on different substrates; assay type: biochemical, Xanthophyllomyces dendrorhous; conditions: for Specific activity: purified protein, 1% substrate; for Hydrolytic activity observed: enzyme purified to homogeneity (F-3)
Description: as §2
The hydrolytic activity of the enzyme purified to homogeneity (F-3) following the described process was assayed on different substrates.

[6] = system: Whole X. dendrorhous cells; conditions: cell suspension in phosphate-citrate buffer, 25° C., 11% sucrose; cited from earlier work
[7] = 160 h, new catalyst load (5 U) added after 140 hours
[8] = 186 h, new catalyst load (5 U) added after 140 hours
[9] = reaction time 24 h, 600 g sucrose/l, 5 U/ml
[10] = reaction time 140 h, 600 g sucrose/l, 5 U/ml
[11] = reaction time 160 h, 600 g sucrose/l, 5 U/ml

For `OC[C@H]1O[C@@](CO)(O[C@H]2O[C@H](CO)[C@@H](O)[C@H](O)[C@H]2O)[C@@H](O)[C@@H]1O` [sucrose], the “Composition of the reaction mixture” value ([1]; reaction time 24 h) was 513.4 grams/liter, the “Composition of the reaction mixture” value ([1]; reaction time 140 h) was 357.5 grams/liter and the “Composition of the reaction mixture” value ([1]; reaction time 160 h) was 338.9 grams/liter. The “composition of the system at the end time” value (shortened to “composition of the system”) [1] was 54.6%, the Specific activity [2] was 62140 mU/μg and the Km [3] was 4 mM. The Vmax [3] was 947 μg glucose min^−1, the kcat [3] was 2.35 s⁻¹ and the “Composition of the reaction mixture” value [4, 7] was 358.4 grams/liter. For the same compound, the “Composition of the reaction mixture” value [4, 8] was 323.1 grams/liter, the “Composition of the reaction mixture” value [4, 9] was 474.0 grams/liter and the “Composition of the reaction mixture” value [4, 10] was 424.2 grams/liter. The “Composition of the reaction mixture” value [4, 11] was 416.1 grams/liter and the Specific activity [5] was 675 U/μg.

For `OC[C@H]1O[C@H](O[C@H]2[C@H](O)[C@@H](O)[C@@H](O[C@H]3[C@H](O)[C@@H](O)[C@@H](O[C@H]4[C@H](O)[C@@H](O)[C@@H](O[C@H]5[C@H](O)[C@@H](O)[C@@H](O[C@H]6[C@H](O)[C@@H](O)[C@@H](O[C@H]7[C@H](O)[C@@H](O)C(O)O[C@@H]7CO)O[C@@H]6CO)O[C@@H]5CO)O[C@@H]4CO)O[C@@H]3CO)O[C@@H]2CO)[C@H](O)[C@@H](O)[C@@H]1O` (some centres unmarked) [maltoheptose], the “Fructofuranosidase activity detected” value [2] was “No activity was detected” and the “Hydrolytic activity observed” value [5] was “No activity was observed”.

For `OC[C@H]1O[C@@](CO)(OC[C@@]2(O[C@H]3O[C@H](CO)[C@@H](O)[C@H](O)[C@H]3O)O[C@H](CO)[C@@H](O)[C@@H]2O)[C@@H](O)[C@@H]1O` [1-kestose], the “Composition of the reaction mixture” value ([1]; reaction time 24 h) was 9.2 grams/liter, the “Composition of the reaction mixture” value ([1]; reaction time 140 h) was 24.8 grams/liter and the “Composition of the reaction mixture” value ([1]; reaction time 160 h) was 33.5 grams/liter. The Specific activity [2] was 1675 mU/μg, the “Composition of the reaction mixture” value [4, 7] was 23.9 grams/liter and the “Composition of the reaction mixture” value [4, 8] was 25.8 grams/liter. The “Composition of the reaction mixture” value [4, 9] was 10.3 grams/liter, the “Composition of the reaction mixture” value [4, 10] was 21.3 grams/liter and the “Composition of the reaction mixture” value [4, 11] was 21.9 grams/liter. It also gave a Specific activity [5] of 41 U/μg.

For maltotriose, the “Fructofuranosidase activity detected” value [2] was “No activity was detected” and the “Hydrolytic activity observed” value [5] was “No activity was observed”.

For `O=C[C@H](O)[C@@H](O)[C@H](O)[C@H](O)CO` [glucose], the “Composition of the reaction mixture” value ([1]; reaction time 24 h) was 37.8 grams/liter, the “Composition of the reaction mixture” value ([1]; reaction time 140 h) was 106.8 grams/liter and the “Composition of the reaction mixture” value ([1]; reaction time 160 h) was 109.3 grams/liter. For the same compound, the “composition of the system” value [1] was 17.6%, the “Composition of the reaction mixture” value [4, 7] was 119.5 grams/liter and the “Composition of the reaction mixture” value [4, 8] was 131.2 grams/liter. For the same compound, the “Composition of the reaction mixture” value [4, 9] was 53.2 grams/liter, the “Composition of the reaction mixture” value [4, 10] was 79.3 grams/liter and the “Composition of the reaction mixture” value [4, 11] was 84.3 grams/liter.

With `OC[C@H]1O[C@@](CO)(OC[C@@]2(OC[C@@]3(O[C@H]4O[C@H](CO)[C@@H](O)[C@H](O)[C@H]4O)O[C@H](CO)[C@@H](O)[C@@H]3O)O[C@H](CO)[C@@H](O)[C@@H]2O)[C@@H](O)[C@@H]1O` [nistose] the Specific activity [2] was 502 mU/μg and the Specific activity [5] was 13 U/μg.

For `OC[C@H]1O[C@H](O[C@@H]2COC(O)(CO)[C@@H](O)[C@@H]2O)[C@H](O)[C@@H](O)[C@@H]1O` (some centres unmarked) [leucrose], the “Fructofuranosidase activity detected” value [2] was “No activity was detected” and the “Hydrolytic activity observed” value [5] was “No activity was observed”.

In the case of `OC[C@H]1O[C@@](CO)(OC[C@H]2O[C@H](O[C@]3(CO)O[C@H](CO)[C@@H](O)[C@@H]3O)[C@H](O)[C@@H](O)[C@@H]2O)[C@@H](O)[C@@H]1O` [neokestose], the “Composition of the reaction mixture” value ([1]; reaction time 24 h) is reported as 20.5 grams/liter, the “Composition of the reaction mixture” value ([1]; reaction time 140 h) is reported as 47.4 grams/liter and the “Composition of the reaction mixture” value ([1]; reaction time 160 h) is reported as 53.3 grams/liter. The “maximum of neokestose obtained” value [6] was 75.1 g/L, the “Composition of the reaction mixture” value [4, 7] was 41.6 grams/liter and the “Composition of the reaction mixture” value [4, 8] was 43.9 grams/liter. The “Composition of the reaction mixture” value [4, 9] was 25.8 grams/liter, the “Composition of the reaction mixture” value [4, 10] was 34.3 grams/liter and the “Composition of the reaction mixture” value [4, 11] was 36.5 grams/liter.

With `OC[C@H]1O[C@H](OC[C@H]2O[C@H](O[C@]3(CO)O[C@H](CO)[C@@H](O)[C@@H]3O)[C@H](O)[C@@H](O)[C@@H]2O)[C@H](O)[C@@H](O)[C@H]1O` [raffinose] the Specific activity [2] was 335 mU/μg and the Specific activity [5] was 8 U/μg.

In the case of `OC[C@H]1O[C@H](O[C@H]2[C@H](O)[C@@H](O)C(O)O[C@@H]2CO)[C@H](O)[C@@H](O)[C@@H]1O` (mixture of isomers) [maltose], the “Fructofuranosidase activity detected” value [2] is reported as “No activity was detected” and the “Hydrolytic activity observed” value [5] is reported as “No activity was observed”.

Work on `OC[C@H]1O[C@H](OC[C@H]2OC(O)(CO)[C@@H](O)[C@@H]2O)[C@H](O)[C@@H](O)[C@@H]1O` (some centres unmarked) [palatinose] yielded a Specific activity [2] of 217 mU/μg and a Specific activity [5] of 5 U/μg.

For `O=C(CO)[C@@H](O)[C@H](O)[C@H](O)CO` [fructose], the “Composition of the reaction mixture” value ([1]; reaction time 24 h) was 19.0 grams/liter, the “Composition of the reaction mixture” value ([1]; reaction time 140 h) was 63.5 grams/liter and the “Composition of the reaction mixture” value ([1]; reaction time 160 h) was 65.1 grams/liter. The “composition of the system” value [1] was 10.5%, the “Composition of the reaction mixture” value [4, 7] was 56.5 grams/liter and the “Composition of the reaction mixture” value [4, 8] was 76.0 grams/liter. For the same compound, the “Composition of the reaction mixture” value [4, 9] was 36.8 grams/liter, the “Composition of the reaction mixture” value [4, 10] was 40.9 grams/liter and the “Composition of the reaction mixture” value [4, 11] was 41.2 grams/liter.

From US20090142808A1, “NOVEL ENZYME WITH FRUCTOFURANOSIDASE ACTIVITY, WHICH IS USED TO OBTAIN PREBIOTIC OLIGOSACCHARIDES” (Consejo Superior de Investigaciones Cientificas, priority 2005, published 2009)
